Measurements published in patent US4105668A, “Process for 6-amino-2,2-dimethyl-3-(5-tetrazolyl)penam” (Pfizer Inc., priority 1977, dated 1978).
≈ marks a conversion by molar mass, not a printed value.

What was measured:
[1] = tested on: Escherichia coli; assay: In vitro antibacterial activity (MIC), two-fold serial dilution in Brain-Heart Infusion broth; format: cell-based; details: E. coli, overnight
Description: (§1) The broth is inoculated with the bacterial culture, and with the test compound, and then it is incubated overnight. On the next day, the test is read visually. The minimum inhibitory concentration (MIC) is the lowest concentration of compound which prevents turbidity, i.e., which prevents growth of the microorganism. In vitro activities against certain pathogenic bacteria area shown in Table I. This in vitro activity makes the compound of value for topical applications, for example, in the form of creams and ointments, and for the sterilization of sickroom and hospital surfaces, equipment and the like. […] This in vivo activity makes this compound suitable for the control of bacterial infections caused by susceptible organisms, in mammals, including man, by both the oral and parenteral mode of administration.

[2] = tested on: Staphylococcus aureus; assay: as above; format: cell-based; details: S. aureus, overnight
Description: as §1

[3] = tested on: Streptococcus pyogenes; assay: as above; format: cell-based; details: S. pyogenes, overnight
Description: as §1

[4] = tested on: Staphylococcus aureus; assay: In vivo antibacterial activity, protection of mice against systemic infection (lethal intraperitoneal inoculum); details: infected mice, multiple dosing
[5] = tested on: Escherichia coli; assay: as above; details: infected mice, multiple dosing
[6] = tested on: gram-positive and gram-negative bacteria; assay: In vitro activity against gram-positive and gram-negative bacteria; format: cell-based
Description: as §1

[7] = tested on: Staphylococcus aureus or Escherichia coli; assay: In vivo antibacterial activity in infected mice (statement in words); details: SC and PO
Description: as §1

[8] = Isoelectric point; format: physicochemical; details: in water

SMILES | MIC [1] | MIC [2] | MIC [3] | Percentage protection S. Aureus ([4]; 6 mg./kg. SC) | Percentage protection S. Aureus ([4]; 12 mg./kg. SC) | Percentage protection S. Aureus ([4]; 25 mg./kg. SC) | Percentage protection S. Aureus ([4]; 50 mg./kg. SC) | Percentage protection E. coli ([5]; 25 mg./kg. SC) | Percentage protection E. coli ([5]; 50 mg./kg. SC) | Percentage protection E. coli ([5]; 200 mg./kg. PO) | activity against a wide variety of gram-positive and gram-negative bacteria [6] | antibacterial activity in vivo [7] | isoelectric point [8]
CC1(C)S[C@@H]2[C@H](NC(=O)[C@H](N)c3ccc(O)cc3)C(=O)N2[C@H]1c1nn[nH]n1 [6-(D-2-Amino-2-[4-hydroxyphenyl]acetamido)-2,2-dimethyl-3-(5-tetrazolyl)penam] | 780 ng/mL (≈ 2 µM) | 6 ng/mL (≈ 0.0154 µM) | 1 ng/mL (≈ 0.00257 µM) | 50% | 50% | 70% | 80% | 80% | 100% | 100% | shows activity against a wide variety of gram-positive and gram-negative bacteria | active as an antibacterial agent in vivo | –
CC1(C)S[C@@H]2[C@H](N)C(=O)N2[C@H]1c1nn[nH]n1 [6-amino-2,2-dimethyl-3-(5-tetrazolyl)penam] | – | – | – | – | – | – | – | – | – | – | – | – | ~4.1 pH
